# Measured values published in PubChem BioAssay AID488844 (Broad Institute, 2010).
# Several values for one entry are separate records, joined by “and”; a condition that tells them apart may be missing. Equal values may be shown once. Activity calls are given as the source filed them.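 The calls were made as follows: active = compounds raising protection with a fitted AC50 no more than tenfold their highest valid tested dose; inconclusive = flat curve with partial protection, or unreliable curve fit; inactive = the rest.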
# Assays:
# [1] = beta-cell survival under cytokine stress – INS-1E, ATP luminescence, dry powder, dose response (AID 488844); conditions: INS-1E cytokine-induced death rescue, ATP luminescence, 48 h
# [2] = tested on: INS-1E cytokine-induced death rescue, ATP luminescence, 48 h; assay: as above
Compound,protection from cytokine death ([1]; at 26 µM (top of the series)),also measured
C[C@@H]1CN([C@@H](C)CO)C(=O)c2cccc(NC(=O)Nc3cccc4ccccc34)c2O[C@H]1CN(C)S(=O)(=O)c1ccc2c(c1)oc(=O)n2C,4.91% (inactive),–
COc1ccc(S(=O)(=O)N(C)C[C@@H]2Oc3c(NC(=O)C4CC4)cccc3C(=O)N([C@@H](C)CO)C[C@H]2C)cc1,–,protection from cytokine death ([1]; at 23.5 µM (top of the series)): 1.51% (inactive)
COc1ccc(S(=O)(=O)N(C)C[C@@H]2Oc3c(NC(=O)C4CCCCC4)cccc3C(=O)N([C@@H](C)CO)C[C@H]2C)cc1,-8.99% (inactive),–
COc1ccc(S(=O)(=O)N(C)C[C@@H]2Oc3c(NC(=O)Nc4c(C)noc4C)cccc3C(=O)N([C@@H](C)CO)C[C@H]2C)cc1,-2.07% (inactive),–
CNC[C@@H]1Oc2c(NC(=O)Nc3cccc4ccccc34)cccc2C(=O)N([C@@H](C)CO)C[C@H]1C,-5.76% (inactive),–
COc1ccc(S(=O)(=O)N(C)C[C@@H]2Oc3c(NC(=O)c4ccc(-c5nccs5)cc4)cccc3C(=O)N([C@@H](C)CO)C[C@H]2C)cc1,12.6% (inactive),–
C[C@@H]1CN([C@@H](C)CO)C(=O)c2cccc(NC(=O)Nc3cccc4ccccc34)c2O[C@H]1CN(C)C(=O)NC1CCCCC1,-35.9% (inactive),–
Cc1noc(C)c1NC(=O)N(C)C[C@@H]1Oc2c(NC(=O)Nc3cccc4ccccc34)cccc2C(=O)N([C@@H](C)CO)C[C@H]1C,-14.9% (inactive),–
N#Cc1ccc2cc(Br)c(C(F)(F)P(=O)(O)O)cc2c1,-34.9% (inactive),–
C[C@@H]1CN([C@@H](C)CO)C(=O)c2cccc(NC(=O)Nc3cccc4ccccc34)c2O[C@H]1CN(C)S(=O)(=O)c1ccc2c(c1)OCCO2,–,AC50 [2]: 1.62 µM and 4.81 µM
COc1ccc(S(=O)(=O)N(C)C[C@@H]2Oc3c(cccc3N(C)C)C(=O)N([C@@H](C)CO)C[C@H]2C)cc1,–,protection from cytokine death ([1]; at 23.5 µM (top of the series)): -5.24% (inactive)
COc1ccc(S(=O)(=O)N(C)C[C@@H]2Oc3c(NC(=O)C4CCOCC4)cccc3C(=O)N([C@@H](C)CO)C[C@H]2C)cc1,–,protection from cytokine death ([1]; at 23.5 µM (top of the series)): 6.47% (inactive)
COc1ccc(NC(=O)N(C)C[C@@H]2Oc3c(NC(=O)Nc4cccc5ccccc45)cccc3C(=O)N([C@@H](C)CO)C[C@H]2C)cc1,-28.7% (inactive),–
COc1ccc(S(=O)(=O)N(C)C[C@@H]2Oc3c(NC(=O)Nc4cccc5ccccc45)cccc3C(=O)N([C@H](C)CO)C[C@@H]2C)cc1,13.8% (inactive),–
C[C@@H]1CN([C@@H](C)CO)C(=O)c2cccc(NC(=O)Nc3cccc4ccccc34)c2O[C@H]1CN(C)S(=O)(=O)c1cn(C)cn1,-7.7% (inactive),–
COc1ccc(S(=O)(=O)N(C)C[C@@H]2Oc3c(NS(C)(=O)=O)cccc3C(=O)N([C@@H](C)CO)C[C@H]2C)cc1,-4.24% (inactive),–
C[C@@H]1CN([C@@H](C)CO)C(=O)c2cccc(NC(=O)Nc3cccc4ccccc34)c2O[C@H]1CN(C)S(=O)(=O)c1ccc2c(c1)OCCCO2,25.8% (inactive),–
COc1ccc(S(=O)(=O)N(C)C[C@@H]2Oc3c(NC(=O)Nc4ccccc4)cccc3C(=O)N([C@@H](C)CO)C[C@H]2C)cc1,–,AC50 [2]: > 26 µM (inactive)
COc1ccc(S(=O)(=O)N(C)C[C@@H]2Oc3c(NC(=O)Nc4ccc(C(F)(F)F)cc4)cccc3C(=O)N([C@@H](C)CO)C[C@H]2C)cc1,7.51% (inactive),–
C[C@@H]1CN([C@@H](C)CO)C(=O)c2cccc(NC(=O)Nc3cccc4ccccc34)c2O[C@H]1CN(C)S(=O)(=O)c1ccc2c(n1)N(C)CCO2,22.7% (inactive),–
COc1ccc(S(=O)(=O)N(C)C[C@@H]2Oc3c(NC(=O)c4cnccn4)cccc3C(=O)N([C@@H](C)CO)C[C@H]2C)cc1,6.69% (inactive),–
COc1ccc(S(=O)(=O)N(C)C[C@@H]2Oc3c(NC(=O)NC(C)C)cccc3C(=O)N([C@@H](C)CO)C[C@H]2C)cc1,-1.33% (inactive),–
COc1ccc(S(=O)(=O)N(C)C[C@@H]2Oc3c(NC(=O)c4nc5ccccc5s4)cccc3C(=O)N([C@@H](C)CO)C[C@H]2C)cc1,-19.4% (inactive),–
C[C@@H]1CN([C@@H](C)CO)C(=O)c2cccc(NC(=O)Nc3cccc4ccccc34)c2O[C@H]1CN(C)C(=O)Nc1ccc(C(F)(F)F)cc1,–,protection from cytokine death ([1]; at 23.5 µM (top of the series)): -33.2% (inactive)
COc1ccc(S(=O)(=O)N(C)C[C@@H]2Oc3c(NS(=O)(=O)c4cn(C)cn4)cccc3C(=O)N([C@@H](C)CO)C[C@H]2C)cc1,-12.2% (inactive),–

Compound,protection from cytokine death ([1]; at 26 µM (top of the series)),also measured
C[C@@H]1CN([C@@H](C)CO)C(=O)c2cccc(NS(=O)(=O)c3ccccc3)c2O[C@H]1CN(C)Cc1ccc(C(F)(F)F)cc1,-9.86% (inactive),–
Cc1ccc(S(=O)(=O)N(C)C[C@H]2Oc3c(NC(=O)Nc4cccc5ccccc45)cccc3C(=O)N([C@@H](C)CO)C[C@@H]2C)cc1,-9.39% (inactive),–
C[C@@H]1CN([C@@H](C)CO)C(=O)c2cccc(NC(=O)Nc3cccc4ccccc34)c2O[C@H]1CN(C)C(=O)Nc1ccc2c(c1)OCO2,-28.7% (inactive),–
Cc1ccc(S(=O)(=O)N(C)C[C@@H]2Oc3c(NC(=O)Nc4cccc5ccccc45)cccc3C(=O)N([C@H](C)CO)C[C@H]2C)cc1,–,AC50 [2]: > 23.5 µM (inactive)
COc1ccc(S(=O)(=O)N(C)C[C@@H]2Oc3c(NS(=O)(=O)c4ccccc4)cccc3C(=O)N([C@@H](C)CO)C[C@H]2C)cc1,4.09% (inactive),–
C[C@@H]1CN([C@@H](C)CO)C(=O)c2cccc(NC(=O)Nc3cccc4ccccc34)c2O[C@H]1CN(C)S(C)(=O)=O,-4.98% (inactive),–
COc1ccc(S(=O)(=O)N(C)C[C@@H]2Oc3c(NC(=O)NC4CCCCC4)cccc3C(=O)N([C@@H](C)CO)C[C@H]2C)cc1,7.69% (inactive),–
C[C@@H]1CN([C@@H](C)CO)C(=O)c2cccc(NC(=O)Nc3cccc4ccccc34)c2O[C@H]1CN(C)C(=O)Nc1ccc(F)cc1,-27.4% (inactive),–
COc1ccc(NC(=O)Nc2cccc3c2O[C@@H](CN(C)S(=O)(=O)c2ccc(OC)cc2)[C@H](C)CN([C@@H](C)CO)C3=O)cc1,13.4% (inactive),–
COc1ccc(S(=O)(=O)Nc2cccc3c2O[C@@H](CN(C)S(=O)(=O)c2ccc(OC)cc2)[C@H](C)CN([C@@H](C)CO)C3=O)cc1,-0.665% (inactive),–
COc1ccccc1S(=O)(=O)N(C)C[C@@H]1Oc2c(NC(=O)Nc3cccc4ccccc34)cccc2C(=O)N([C@@H](C)CO)C[C@H]1C,-1.88% (inactive),–
C[C@@H]1CN([C@@H](C)CO)C(=O)c2cccc(NC(=O)Nc3cccc4ccccc34)c2O[C@H]1CN(C)C(=O)Nc1ccccc1,–,protection from cytokine death ([1]; at 23.5 µM (top of the series)): -1.63% (inactive)
COc1ccc(S(=O)(=O)N(C)C[C@@H]2Oc3c(NC(=O)c4ccncc4)cccc3C(=O)N([C@@H](C)CO)C[C@H]2C)cc1,0.628% (inactive),–
C[C@@H]1CN([C@@H](C)CO)C(=O)c2cccc(NC(=O)Nc3cccc4ccccc34)c2O[C@H]1CN(C)S(=O)(=O)c1cccc(F)c1,-13.6% (inactive),–
C[C@H]1CN([C@@H](C)CO)C(=O)c2cccc(NC(=O)NC3CCCCC3)c2O[C@@H]1CN(C)S(C)(=O)=O,-7.31% (inactive),–
C[C@@H]1CN([C@@H](C)CO)C(=O)c2cccc(NC(=O)Nc3cccc4ccccc34)c2O[C@H]1CN(C)S(=O)(=O)c1ccccc1F,-7.82% (inactive),–
C[C@@H]1CN([C@@H](C)CO)C(=O)c2cccc(NC(=O)Nc3cccc4ccccc34)c2O[C@H]1CN(C)CC1CC1,-29.1% (inactive),–
COc1ccc(S(=O)(=O)N(C)C[C@@H]2Oc3c(NC(=O)Nc4ccc5c(c4)OCO5)cccc3C(=O)N([C@@H](C)CO)C[C@H]2C)cc1,9.8% (inactive),–
COc1ccc(S(=O)(=O)N(C)C[C@@H]2Oc3ccc(NC(=O)Nc4cccc5ccccc45)cc3C(=O)N([C@@H](C)CO)C[C@H]2C)cc1,-13.2% (inactive),–
C[C@@H]1CN([C@@H](C)CO)C(=O)c2cccc(NC(=O)Nc3cccc4ccccc34)c2O[C@H]1CN(C)S(=O)(=O)c1cccs1,-2.28% (inactive),–
COc1ccc(S(=O)(=O)N(C)C[C@@H]2Oc3c(NS(=O)(=O)c4ccc(F)cc4)cccc3C(=O)N([C@@H](C)CO)C[C@H]2C)cc1,8.48% (inactive),–
C[C@@H]1CN([C@@H](C)CO)C(=O)c2cccc(NC(=O)Nc3cccc4ccccc34)c2O[C@H]1CN(C)S(=O)(=O)c1ccccc1,16.5% (inactive),–
COc1ccc(S(=O)(=O)N(C)C[C@@H]2Oc3c(NC(=O)c4cccc5ccccc45)cccc3C(=O)N([C@@H](C)CO)C[C@H]2C)cc1,1.13% (inactive),–
C[C@@H]1CN([C@@H](C)CO)C(=O)c2cccc(NC(=O)Nc3cccc4ccccc34)c2O[C@H]1CN(C)S(=O)(=O)c1ccc(OC(F)(F)F)cc1,-128% (inactive),–
COc1ccc(S(=O)(=O)N(C)C[C@@H]2Oc3c(NC(=O)Nc4cccc5ccccc45)cccc3C(=O)N([C@@H](C)CO)C[C@H]2C)cc1OC,34.5% (inactive),–
